According to patent US8772237B2, “Compositions and methods for counteracting effects of reactive oxygen species and free radicals” (Ischemix, Inc., priority 1999, dated 2014):
Ends that are not written are not given here.

Legend:
Format in all cases: cell-based
[1] = tested on: superoxide dismutase-1 (SOD-1) mRNA; assay: RT-PCR upregulation of SOD-1 mRNA in rat primary cortical cell cultures; conditions: 100 ng/ml
Protocol: The RT-PCR method (see, for example, Innis et al., PCR Protocols: A Guide to Methods and Applications, (Academic Press, San Diego, 1990)) was used to investigate the upregulation of the specific mRNA that codes for the enzyme superoxide dismutase (SOD).
Primary cortical cultures were obtained by growing newborn rat brain cortical cells in Delbecco's modified Eagle medium supplemented with 25 μg/ml of gentamycin and 10% fetal calf serum. The cells were isolated from the E-21 cortex of rat brain, plated at a density of 1×10^5 per ml and grown to confluence within four to five days in an atmosphere containing air and 5% CO2 at 37° C. as described in Cornell-Bell et al., Science, 247: 470-473 (1990) and Cell Calcium, 12: 185-204 (1991). Cultures were grown in 20 ml flasks as a monolayer and then exposed to various concentrations of peptides for studies of the effects of peptides on upregulation of genes for SOD and CAT and on the transmigration of transcription factor AP-1 to cell nuclei.
(§1) Primary cultures of rat brain cortical cells were incubated with 100 ng/ml of peptide compound CMX-9236 for durations of 0 to 48 hours. mRNA was isolated from the cytoplasmic fraction of lysed cells according to standard methods (Angel et al., Cell 49:729-739, 1987). The RNA was incubated according to the RT-PCR protocol with two strands, 20 nucleotides long, one for the sense and one from the antisense strand. The sequences were selected to be unique for superoxide dismutase-1 (SOD-1), and to span one intron segment. […] The sequence of the two probe segments of the oligo dT segments for SOD are as follows: anti-sense strand, […] (SEQ ID NO:29), and sense strand, […] (SEQ ID NO:30). These span a sequence of 208 base pairs (bp) on the primary SOD sequence. The mixture was then treated with reverse transcriptase to obtain the cDNA according to standard PCR methods. The cDNA was then analyzed by electrophoresis and separated according to sequence lengths on a non-denaturing 5% polyacrylamide gel. The electrophoretically separated molecules were treated with ethidium bromide to stain double-stranded DNA fragments. These were visualized by ultraviolet illumination and photographed. The gels were then analyzed by a laser scanning fluorescence detector to quantitate the amount of messenger RNA for the extent of upregulation of SOD message and its time course of synthesis as a function of stimulation by CMX-9236. Similar methods of analysis were used for other peptides.

[2] = tested on: SOD-1 mRNA; assay: RT-PCR upregulation of SOD-1 mRNA in rat primary myocyte cultures; conditions: rat primary myocytes, 3-hour incubation
Protocol: as §1, with “These were visualized by ultraviolet illumination and photographed.” left out, “Similar methods of analysis were used for other peptides.” left out

[3] = tested on: catalase (CAT) mRNA; assay: RT-PCR upregulation of catalase (CAT) mRNA in primary rat cortical cultures; conditions: 100 ng/ml
Text: Peptide compounds of the invention may also upregulate mRNA for catalase (CAT). Experiments using the RT-PCR methods to detect upregulation of CAT mRNA in primary rat cortical brain cultures treated with various representative peptide compounds, i.e., CMX-9236, CMX-9963, and CMX-9967. The catalase probe duplex consisted of a sense primer having the sequence […] (SEQ ID NO:31) and antisense primer having the sequence […] (SEQ ID NO:32) flanking a 95 bp region of the CAT DNA.
Primary rat brain cortical cell cultures were incubated with 100 ng/ml of the peptide compound CMX-9236 for 0, 0.5, 1, 2, 3, 6, 12, 24, and 48 hours. […] The upregulation of CAT mRNA was maximal at 3 hours after the addition of the peptide compound, and it decreased back to control levels at 48 hours. GAPDH was the internal standard in these experiments. […] A 13-fold increase in CAT mRNA levels was observed (over control) of CAT mRNA occurred when primary rat brain cortical cultures were incubated with 100 ng/ml of CMX-9236 for 3 hours.

[4] = tested on: catalase (CAT) protein; assay: Western immunoblot of CAT protein in rat primary cortical cultures; conditions: Dose 67 pmol/ml, 5 hours at 37° C.
Protocol: Tissue culture experiments were carried out using primary cultures of rat brain cortical cells as previously described above in Example 2. Primary cultures from embryonic rat brain isolated at E-21 (21 day embryos) and incubated for five hours with various doses: 1, 10, 100 ng/ml of CMX-99672. Cytoplasmic proteins were isolated and analyzed for upregulation of SOD and CAT by Western immunoblots as described above. […] The Western blot was scanned to quantify the fold-increase in SOD production in cell cultures treated with the CMX-99672 peptide compound.
Representative peptide compounds were tested at various doses and compared for their ability to upregulate expression of genes for SOD and/or CAT in rat primary cortical cultures basically as described above. Cultures were incubated with a peptide compound for 5 hours at 37° C. Cytoplasmic protein fractions were prepared as described above. Cytoplasmic proteins were separated by gel electrophoresis and analyzed by Western immunoblots using antisera to SOD and CAT, respectively (Rockland, Inc., Gilbertsville, Pa.).

time at which CAT mRNA decreased back to control levels [3]: 48 h | time of maximal upregulation of CAT mRNA after addition [3]: 3 h | increase in CAT mRNA levels over control ([3]; 3 hours): 13 fold
Sequence: KKDGDGDFAIDAPE [CMX-9236, uncapped peptide]
time until SOD-1 mRNA stimulation returns to control levels [1]: ≤ 24 h | upregulation of SOD-1 mRNA transcripts ([1]; rat primary cortical cells, 3 hours incubation): 9 fold | upregulation of SOD mRNA ([2]; 1 ng/ml): 3 fold | upregulation of SOD-1 mRNA transcripts ([2]; 10-100 ng/ml): about 6 fold | CAT [4]: 652 % Control
